In BindingDB's records for doi:10.1016/j.bmcl.2007.02.059 (Johnson & Johnson Pharmaceutical Research & Development, 2007):

- IC50 (Inhibition of human Rsk2): 850 nM
- IC50 (Inhibition of human Rsk3): 48 nM
Compound: CN(C)c1nc2ccc1CCCn1cc(c3ccccc31)C1=C(C(=O)NC1=O)c1cn(c3ccccc13)CC2
